pIC50: −log10 of the molar value.
target: T1, Thyrotropin-releasing hormone receptor 2 (Rattus norvegicus, UniProt A6IZR3); assay: Displacement of [3H]3-methylhistidyl-TRH from rat recombinant TRHR2 expressed in […] cells; assay type: cell-based
T1 sequence (A6IZR3 whole entry): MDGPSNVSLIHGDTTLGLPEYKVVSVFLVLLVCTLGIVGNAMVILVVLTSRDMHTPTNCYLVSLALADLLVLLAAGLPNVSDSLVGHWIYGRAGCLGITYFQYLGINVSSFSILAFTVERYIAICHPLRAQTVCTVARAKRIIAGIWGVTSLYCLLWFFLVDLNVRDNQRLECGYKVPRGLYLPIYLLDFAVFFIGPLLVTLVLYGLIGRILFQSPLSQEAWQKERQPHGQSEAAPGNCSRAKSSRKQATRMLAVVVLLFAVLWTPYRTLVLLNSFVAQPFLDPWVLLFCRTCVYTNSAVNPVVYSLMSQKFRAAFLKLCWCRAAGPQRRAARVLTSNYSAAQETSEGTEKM

| pIC50 | Compound |
| --- | --- |
| 4.64 | CC(=O)OC[C@]12CCC[C@](C)(CO)[C@@H]1CC[C@@]1(C)c3cocc3CC[C@H]21 |
| 7.64 | NC(=O)[C@@H]1CCCN1C(=O)[C@H](Cc1cnc[nH]1)NC(=O)[C@@H]1CCC(=O)N1 [PROTIRELIN] |
| 3.00 | CC1(C)CCC[C@]2(C)[C@H]3CCc4cocc4[C@]3(C)CC[C@@H]12 |
| 3.22 | C[C@]1(CO)CCC[C@]2(CO)[C@H]3CCc4cocc4[C@]3(C)CC[C@@H]12 |
| 4.15 | CC(=O)OC[C@@]1(C)CCC[C@]2(CO)[C@H]3CCc4cocc4[C@]3(C)CC[C@@H]12 |
| 3.40 | CC(=O)OC[C@@]1(C)CCC[C@]2(COC(C)=O)[C@H]3CCc4cocc4[C@]3(C)CC[C@@H]12 |
